Columns and labels:
[1] = target: T1, human MER (528-end) (Homo sapiens, UniProt Q12866); experiment: HTRF kinase activity biochemical assay, MER; conditions: recombinant kinase, 10 uM ATP, 30 minutes pre-incubation; read-out: HTRF MERTK IC50;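 note: phosphorylation of a biotin-tagged tyrosine kinase substrate detected by Eu3+-cryptate antibody and streptavidin-XL665 time-resolved fluorescence, read after 1 h at room temperature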
T1 construct: human MER (528-end); purchased Carnabio, Japan
T1 sequence (Q12866 528-999 limits assumed): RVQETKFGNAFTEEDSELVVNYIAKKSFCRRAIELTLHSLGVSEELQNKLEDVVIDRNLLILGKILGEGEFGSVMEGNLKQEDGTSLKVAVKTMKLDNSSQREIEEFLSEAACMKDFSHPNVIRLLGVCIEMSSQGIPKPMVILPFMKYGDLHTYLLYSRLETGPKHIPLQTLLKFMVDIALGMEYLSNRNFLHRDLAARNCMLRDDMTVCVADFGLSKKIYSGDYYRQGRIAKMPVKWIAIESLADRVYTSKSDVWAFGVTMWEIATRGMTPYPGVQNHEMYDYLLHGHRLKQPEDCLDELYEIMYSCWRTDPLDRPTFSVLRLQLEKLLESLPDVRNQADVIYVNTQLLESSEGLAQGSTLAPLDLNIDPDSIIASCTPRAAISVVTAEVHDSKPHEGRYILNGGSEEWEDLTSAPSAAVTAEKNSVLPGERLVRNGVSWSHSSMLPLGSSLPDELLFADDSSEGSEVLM

[2] = target: T2, TYRO3 (455-end) (Homo sapiens, UniProt Q06418); experiment: HTRF kinase activity biochemical assay, TYRO3; conditions: recombinant kinase, 10 uM ATP, 30 minutes pre-incubation; read-out: HTRF TYRO IC50;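 note: biotinylated tyrosine kinase substrate phosphorylation detected via streptavidin-XL665 and Eu3+-cryptate anti-phospho antibody time-resolved fluorescence, read after 1 h detection at room temperature, 384-well format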
T2 construct: TYRO3 (455-end); purchased SignalChem, Canada
T2 sequence (Q06418 455-890 limits assumed): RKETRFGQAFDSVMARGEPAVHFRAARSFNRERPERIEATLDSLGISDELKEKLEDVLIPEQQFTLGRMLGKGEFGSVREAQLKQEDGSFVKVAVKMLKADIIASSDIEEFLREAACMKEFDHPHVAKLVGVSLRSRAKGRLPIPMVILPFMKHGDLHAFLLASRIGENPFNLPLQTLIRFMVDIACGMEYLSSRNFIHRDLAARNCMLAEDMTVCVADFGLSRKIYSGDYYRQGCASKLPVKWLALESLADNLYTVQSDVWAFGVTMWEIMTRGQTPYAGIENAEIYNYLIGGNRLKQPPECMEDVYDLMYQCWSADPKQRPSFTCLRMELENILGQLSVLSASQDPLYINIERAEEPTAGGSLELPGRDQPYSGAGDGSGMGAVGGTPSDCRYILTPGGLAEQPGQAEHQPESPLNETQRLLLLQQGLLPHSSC

[3] = target: T3, human AXL (473-end) (Homo sapiens, UniProt P30530); experiment: HTRF kinase activity biochemical assay, AXL; conditions: recombinant kinase, 10 uM ATP, 30 minutes pre-incubation; read-out: HTRF AXL IC50;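 note: phosphorylation of a biotinylated tyrosine kinase substrate detected via Eu3+-cryptate anti-TK antibody and streptavidin-XL665, fluorescence read after a 1 h incubation at room temperature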
T3 construct: human AXL (473-end); purchased SignalChem, Canada
T3 sequence (P30530 473-894 limits assumed): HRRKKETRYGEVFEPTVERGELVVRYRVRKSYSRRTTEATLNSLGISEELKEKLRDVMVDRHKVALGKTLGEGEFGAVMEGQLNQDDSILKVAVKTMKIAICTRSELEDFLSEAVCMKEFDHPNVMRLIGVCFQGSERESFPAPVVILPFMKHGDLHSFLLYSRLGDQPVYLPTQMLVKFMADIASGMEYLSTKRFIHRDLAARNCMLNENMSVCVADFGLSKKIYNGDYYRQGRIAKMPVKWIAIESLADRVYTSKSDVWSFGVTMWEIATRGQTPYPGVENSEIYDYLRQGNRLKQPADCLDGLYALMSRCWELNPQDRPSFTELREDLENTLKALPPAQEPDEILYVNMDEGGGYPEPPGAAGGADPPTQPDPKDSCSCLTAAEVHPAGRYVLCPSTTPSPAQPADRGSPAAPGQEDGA

Structure (SMILES): Cn1cc(Nc2ncc(C3CN(c4nc5ccc(-c6ccc(OCCO)cc6)cc5o4)C3)nc2C(N)=O)cn1 [Example 89, 6-(1-{6-[4-(2-hydroxyethoxy)phenyl]-1,3-benzoxazol-2-yl}azetidin-3-yl)-3-[(1-methyl-1H-pyrazol-4-yl)amino]pyrazine-2-carboxamide]
- IC50 [1]: 1 nM
- IC50 [2]: 260 nM
- IC50 [3]: 6 nM

Structure (SMILES): Cn1cc(Nc2ncc(C3CN(c4nc5ccc(-c6cnn(CCO)c6)cc5o4)C3)nc2C(N)=O)cn1 [Example 90, 6-(1-{6-[1-(2-hydroxyethyl)-1H-pyrazol-4-yl]-1,3-benzoxazol-2-yl}azetidin-3-yl)-3-[(1-methyl-1H-pyrazol-4-yl)amino]pyrazine-2-carboxamide]
- IC50 [1]: 2 nM
- IC50 [2]: 880 nM
- IC50 [3]: 4 nM

Structure (SMILES): COCCn1cc(-c2ccc3nc(N4CC(c5cnc(Nc6cnn(C)c6)c(C(N)=O)n5)C4)oc3c2)cn1 [Example 91, 6-(1-{6-[1-(2-methoxyethyl)-1H-pyrazol-4-yl]-1,3-benzoxazol-2-yl}azetidin-3-yl)-3-[(1-methyl-1H-pyrazol-4-yl)amino]pyrazine-2-carboxamide]
- IC50 [1]: 2 nM
- IC50 [2]: 1430 nM
- IC50 [3]: 4 nM

Structure (SMILES): Cn1cc(Nc2ncc(C3CN(c4nc5ccc(-c6cnn(C)c6)cc5o4)C3)nc2C(N)=O)cn1 [Example 92, 3-[(1-methyl-1H-pyrazol-4-yl)amino]-6-{1-[6-(1-methyl-1H-pyrazol-4-yl)-1,3-benzoxazol-2-yl]azetidin-3-yl}pyrazine-2-carboxamide]
- IC50 [1]: < 1 nM
- IC50 [2]: 80 nM
- IC50 [3]: 3 nM

Structure (SMILES): Cn1cc(Nc2ncc(C3CN(c4nc5ccc(OCc6cn[nH]c6)cc5o4)C3)nc2C(N)=O)cn1 [Example 93, 3-[(1-methyl-1H-pyrazol-4-yl)amino]-6-(1-{6-[(1H-pyrazol-4-yl)methoxy]-1,3-benzoxazol-2-yl}azetidin-3-yl)pyrazine-2-carboxamide]
- IC50 [1]: < 1 nM
- IC50 [2]: 44 nM
- IC50 [3]: 2 nM

Structure (SMILES): CC(C)(O)CCOc1ccc2nc(N3CC(c4cnc(Nc5cnn(C(C)(C)C)c5)c(C(N)=O)n4)C3)oc2c1 [Example 94, 3-[(1-tert-butyl-1H-pyrazol-4-yl)amino]-6-{1-[6-(3-hydroxy-3-methylbutoxy)-1,3-benzoxazol-2-yl]azetidin-3-yl}pyrazine-2-carboxamide]
- IC50 [1]: < 1 nM
- IC50 [2]: 910 nM
- IC50 [3]: 3 nM

Structure (SMILES): Cn1cc(Nc2ncc(C3CN(c4nc5ccc(OCCC(C)(C)OC(=O)CN)cc5o4)C3)nc2C(N)=O)cn1 [Example 95, 4-{[2-(3-{6-carbamoyl-5-[(1-methyl-1H-pyrazol-4-yl)amino]pyrazin-2-yl}azetidin-1-yl)-1,3-benzoxazol-6-yl]oxy}-2-methylbutan-2-yl glycinate]
- IC50 [1]: < 1 nM
- IC50 [2]: 280 nM
- IC50 [3]: 3 nM

Structure (SMILES): Cn1cc(Nc2ncc(C3CN(c4nc5ccc(OCCC(C)(C)OC(=O)CNC(=O)OC(C)(C)C)cc5o4)C3)nc2C(N)=O)cn1 [Example 95A, 4-{[2-(3-f{6-carbamoyl-5-[(1-methyl-1H-pyrazol-4-yl)amino]pyrazin-2-yl}azetidin-1-yl)-1,3-benzoxazol-6-yl]oxy}-2-methylbutan-2-yl [(tert-butoxycarbonyl)amino]acetate]
- IC50 [1]: < 1 nM
- IC50 [2]: 460 nM
- IC50 [3]: 3 nM

Structure (SMILES): CC(C)(O)CCOc1ccc2nc(N3CC(c4cnc(Nc5cnn(CC(C)(C)O)c5)c(C(N)=O)n4)C3)oc2c1 [Example 96, 6-{1-[6-(3-hydroxy-3-methylbutoxy)-1,3-benzoxazol-2-yl]azetidin-3-yl}-3-{[1-(2-hydroxy-2-methylpropyl)-1H-pyrazol-4-yl]amino}pyrazine-2-carboxamide]
- IC50 [1]: 3 nM
- IC50 [2]: 1610 nM
- IC50 [3]: 12 nM

Structure (SMILES): CC(C)(O)CCOc1ccc2nc(N3CC(c4cnc(Nc5cnn(COCC[Si](C)(C)C)c5)c(C(N)=O)n4)C3)oc2c1 [Example 96A, 6-{1-[6-(3-hydroxy-3-methylbutoxy)-1,3-benzoxazol-2-yl]azetidin-3-yl}-3-[(1-{[2-(trimethylsilyl)ethoxy]methyl}-1H-pyrazol-4-yl)amino]pyrazine-2-carboxamide]
- IC50 [1]: 11 nM
- IC50 [2]: 1390 nM
- IC50 [3]: 31 nM

Structure (SMILES): CC(C)(O)CCOc1ccc2nc(N3CC(c4cnc(Nc5cn[nH]c5)c(C(N)=O)n4)C3)oc2c1 [Example 96B, 6-{1-[6-(3-hydroxy-3-methylbutoxy)-1,3-benzoxazol-2-yl]azetidin-3-yl}-3-[(1H-pyrazol-4-yl)amino]pyrazine-2-carboxamide]
- IC50 [1]: 2 nM
- IC50 [2]: 670 nM
- IC50 [3]: 7 nM

Structure (SMILES): Cn1cc(COc2ccc3nc(N4CC(c5cnc(Nc6cnn(C)c6)c(C(N)=O)n5)C4)oc3c2)cn1 [Example 97, 3-[(1-methyl-1H-pyrazol-4-yl)amino]-6-(1-{6-[(1-methyl-1H-pyrazol-4-yl)methoxy]-1,3-benzoxazol-2-yl}azetidin-3-yl)pyrazine-2-carboxamide]
- IC50 [1]: 1 nM
- IC50 [2]: 150 nM
- IC50 [3]: 4 nM

Structure (SMILES): Cn1cnc(COc2ccc3nc(N4CC(c5cnc(Nc6cnn(C)c6)c(C(N)=O)n5)C4)oc3c2)c1 [Example 98, 6-(1-{6-[(1-methyl-1H-imidazol-4-yl)methoxy]-1,3-benzoxazol-2-yl}azetidin-3-yl)-3-[(1-methyl-1H-pyrazol-4-yl)amino]pyrazine-2-carboxamide]
- IC50 [1]: 1.1 nM
- IC50 [2]: 1280 nM
- IC50 [3]: 7 nM

Structure (SMILES): Cc1ncc(-c2ccc3nc(N4CC(c5cnc(Nc6cnn(C)c6)c(C(N)=O)n5)C4)oc3c2)s1 [Example 99, 3-[(1-methyl-1H-pyrazol-4-yl)amino]-6-{1-[6-(2-methyl-1,3-thiazol-5-yl)-1,3-benzoxazol-2-yl]azetidin-3-yl}pyrazine-2-carboxamide]
- IC50 [1]: < 1 nM
- IC50 [2]: 24 nM
- IC50 [3]: 1.6 nM

Structure (SMILES): COCCOc1ccc(-c2ccc3nc(N4CC(c5cnc(Nc6cnn(C)c6)c(C(N)=O)n5)C4)oc3c2)cc1 [Example 100, 6-(1-{6-[4-(2-methoxyethoxy)phenyl]-1,3-benzoxazol-2-yl}azetidin-3-yl)-3-[(1-methyl-1H-pyrazol-4-yl)amino]pyrazine-2-carboxamide]
- IC50 [1]: 1 nM
- IC50 [2]: 120 nM
- IC50 [3]: 4 nM

Structure (SMILES): CCOC(C)(C)c1ccc2nc(N3CC(c4cnc(Nc5cnn(C)c5)c(C(N)=O)n4)C3)oc2c1 [Example 101, 6-{1-[6-(2-ethoxypropan-2-yl)-1,3-benzoxazol-2-yl]azetidin-3-yl}-3-[(1-methyl-1H-pyrazol-4-yl)amino]pyrazine-2-carboxamide]
- IC50 [1]: 8 nM
- IC50 [2]: 1490 nM
- IC50 [3]: 12 nM

Structure (SMILES): COc1cnc(Oc2ccc3nc(N4CC(c5cnc(Nc6cnn(C)c6)c(C(N)=O)n5)C4)oc3c2)nc1 [Example 102, 6-(1-{6-[(5-methoxypyrimidin-2-yl)oxy]-1,3-benzoxazol-2-yl}azetidin-3-yl)-3-[(1-methyl-1H-pyrazol-4-yl)amino]pyrazine-2-carboxamide]
- IC50 [1]: < 1 nM
- IC50 [2]: 100 nM
- IC50 [3]: 2 nM

Structure (SMILES): Cn1cc(Nc2ccc(C3CN(c4nc5ccc(Oc6cccnn6)cc5o4)C3)nc2C(N)=O)cn1 [Example 103, 3-[(1-methyl-1H-pyrazol-4-yl)amino]-6-(1-{6-[(pyridazin-3-yl)oxy]-1,3-benzoxazol-2-yl}azetidin-3-yl)pyridine-2-carboxamide]
- IC50 [1]: < 1 nM
- IC50 [2]: 710 nM
- IC50 [3]: 3 nM

Structure (SMILES): Cn1cc(Nc2ncc(C3CN(c4nc5ccc(OCc6cnn(CCO)c6)cc5o4)C3)nc2C(N)=O)cn1 [Example 104, 6-[1-(6-{[1-(2-hydroxyethyl)-1H-pyrazol-4-yl]methoxy}-1,3-benzoxazol-2-yl)azetidin-3-yl]-3-[(1-methyl-1H-pyrazol-4-yl)amino]pyrazine-2-carboxamide]
- IC50 [1]: 8 nM
- IC50 [2]: 3500 nM
- IC50 [3]: 59 nM
